System: Pigmented human epidermal equivalents (MelanoDerm™)
Experiment: In vitro test for depigmentation activity in pigmented human epidermal equivalents (MelanoDerm, MEL-300-B)
Type: cell-based
Conditions: applied topically daily for 8 days, measured on day 9
Description: Pigmented human epidermal equivalents (MelanoDerm™) from MatTek Corporation (Ashland, Mass.) were used to assess the depigmentation activity of test materials. MelanoDerm™ consists of normal, human-derived epidermal keratinocytes (NHEK) and melanocytes (NHM) which have been cultured to form a multilayered, highly differentiated model of the human epidermis. Specifically, MEL-300-B tissues, each 9 mm in diameter were used in the following tests.
The Example 2 ascorbic acid powder mixture was compared with 1% Ascorbic Acid 2-Glucoside (Hayashibara Co Ltd, Japan) in a solvent of 70% ethyl alcohol and 30% butylene glycol as a benchmark. Test materials were applied topically to the MelanoDerm™ skin model daily and the experiment lasted for 8 days. Measurement was taken on day 9. The macroscopic and microscopic visual tissue darkening end points were measured by taking pictures with a digital camera. The Degree of Lightness for each tissue (L-Value) was measured using a spectrophotometer (Konica Minolta CM-2600d). The ΔL (degree of lightness as compared to control) for each test sample is calculated as per following formula: […]
Degree of skin lightness:
ΔL*=L*-value of treated sample−L*-value of control sample.
ΔMexa Index=Melanin Index of control−Melanin Index of treated sample.

## O=C1O[C@H]([C@@H](O)CO)C(O)=C1O[C@H]1O[C@H](CO)[C@@H](O)[C@H](O)[C@H]1O [1% ascorbic acid 2-glucoside in vehicle, Ascorbic Acid 2-Glucoside]
  Δ Mexa Index (Melanin Index of control minus treated sample): 145.67
spectrophotometer
  Δ L-value (degree of skin lightness, treated minus control): 2.34

— patent US20150359742A1, “COMPOSITIONS AND METHODS FOR ENHANCING THE TOPICAL APPLICATION OF A BENEFIT AGENT INCLUDING POWDER TO LIQUID PARTICLES AND A SECOND POWDER” (Johnson & Johnson Consumer Inc., priority 2014, published 2015)
